Tests used:
Format in all cases: in vivo
[1] = system: Scirpus juncoides; experiment: Test Example 11: herbicidal effect test by soil treatment in paddy field; details: 120 g/10a active ingredient, 14 days after treatment
In short: (§1)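 Weed suppression rate (%) was calculated as (1 − mean treated dry weight / mean untreated dry weight) × 100 at 14 days after treatment, two replicates per plot. Seeds were sown at 0–1 cm in flooded (about 3 cm) puddled paddy soil and treated immediately at 120 g active ingredient per 10 are.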

[2] = system: Monochoria vaginalis; experiment: as above; details: 120 g/10a active ingredient, 14 days after treatment
In short: as §1

[3] = system: Echinochloa crus-galli; experiment: as above; details: 120 g/10a active ingredient, 14 days after treatment
In short: as §1

[4] = system: Lindernia pyxidaria; experiment: as above; details: 120 g/10a active ingredient, 14 days after treatment
In short: as §1

[5] = system: Scirpus juncoides; experiment: Test Example 12: herbicidal effect test by treatment during growing period in paddy field; details: 120 g/10a; treatment seven days after sowing in flooded paddy pot; assessed 14 days after treatment
In short: (§2)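 Puddled paddy soil in Wagner pots, 30 seeds per species sown 0-1 cm deep, flooded to about 3 cm in a greenhouse. Seven days after sowing, water-diluted emulsifiable concentrate was dripped in at 120 g active ingredient per 10 are. Suppression (%) from dry weight versus untreated at 14 days, two replicates.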

[6] = system: Monochoria vaginalis; experiment: as above; details: 120 g/10a; treatment seven days after sowing in flooded paddy pot; assessed 14 days after treatment
In short: as §2

[7] = system: Echinochloa crus-galli; experiment: as above; details: 120 g/10a; treatment seven days after sowing in flooded paddy pot; assessed 14 days after treatment
In short: as §2

[8] = system: Lindernia pyxidaria; experiment: as above; details: 120 g/10a; treatment seven days after sowing in flooded paddy pot; assessed 14 days after treatment
In short: as §2

[9] = system: crabgrass; experiment: Test Example 13: herbicidal effect test by soil treatment in upland field; details: 120 g/10a, 14 days after treatment
Protocol: (§3) A pot having a size of 36 cm^2 was filled with field soil (alluvial soil) and after mixing the soil of the surface layer of 1 cm with 20 grains of each weed seed of crabgrass, Echinochloa crus-galli, Chenopodium album and Amaranthus viridis, the surface layer was pressed lightly. One day after the sowing, an emulsifiable concentrate prepared according to Formulation Example 15 by using the compound shown in Table 11 below was diluted with water, and the water-diluted formulation was sprayed on the soil surface at a ratio of 100 liter per 10 are. The application rate of the active ingredient, by conversion, corresponded to 120 g per 10 are. Fourteen Days after the formulation treatment, the herbicidal effect was evaluated by the same criteria as in Test Example 11.

[10] = system: Echinochloa crus-galli; experiment: as above; details: 120 g/10a, 14 days after treatment
Protocol: as §3

[11] = system: Amaranthus viridis; experiment: as above; details: 120 g/10a, 14 days after treatment
Protocol: as §3

[12] = system: Chenopodium album; experiment: as above; details: 120 g/10a, 14 days after treatment
Protocol: as §3

Row | SMILES | Weed suppression rate (%) Scirpus juncoides [1] | Weed suppression rate (%) Monochoria vaginalis [2] | Weed suppression rate (%) Echinochloa crus-galli [3] | Weed suppression rate (%) Lindemia pyxidaria [4] | Weed suppression rate (%) Scirpus juncoides [5] | Weed suppression rate (%) Monochoria vaginalis [6] | Weed suppression rate (%) Echinochloa crus-galli [7] | Weed suppression rate (%) Lindemia pyxidaria [8] | herbicidal effect, Crabgrass [9] | herbicidal effect, Echinochloa crus-galli [10] | herbicidal effect, Amaranthus viridis [11] | herbicidal effect, Chenopodium album [12]
1 | CCN(CC)C(=O)n1cnn(S(=O)(=O)c2ccccc2)c1=O [Compound 11-352] | 60% | 50% | 100% | 60% | 60% | 60% | 100% | 70% | 80% | 80% | 0% | 40%
2 | CC(C)N(C(=O)n1cnn(S(=O)(=O)c2ccccc2)c1=O)c1ccc(F)cc1 [Compound 11-358] | 90% | 80% | 90% | 80% | 90% | 80% | 90% | 80% | 90% | 80% | 90% | 80%
3 | CC(C)N(C(=O)n1cnn(S(=O)(=O)c2ccccc2F)c1=O)c1c(F)cc(F)cc1F [Compound 11-406] | 80% | 80% | 100% | 100% | 80% | 80% | 100% | 70% | 90% | 100% | 30% | 30%
4 | CC(C)N(C(=O)n1cnn(S(=O)(=O)c2ccc(F)cc2)c1=O)c1c(F)cccc1F [Compound 11-477] | 100% | 70% | 100% | 90% | 70% | 70% | 100% | 60% | 100% | 100% | 70% | 70%
5 | Cc1cc(F)ccc1N(C(=O)n1cnn(S(=O)(=O)c2ccc(F)cc2)c1=O)C(C)C [Compound 11-488] | 100% | 80% | 100% | 100% | 80% | 100% | 100% | 100% | 70% | 60% | 60% | 60%
6 | CCN(CC)C(=O)n1cnn(S(=O)(=O)c2cccc(Cl)c2)c1=O [Compound 11-538] | 40% | 40% | 50% | 40% | 70% | 70% | 70% | 70% | 60% | 80% | 40% | 40%
7 | CC(C)N(C(=O)n1cnn(S(=O)(=O)c2cccc(Cl)c2)c1=O)c1ccc(F)cc1F [Compound 11-550] | 80% | 80% | 90% | 90% | 80% | 90% | 70% | 90% | 90% | 90% | 0% | 0%
8 | CC(C)N(C(=O)n1cnn(S(=O)(=O)c2ccc(Cl)cc2)c1=O)c1ccc(F)cc1F [Compound 11-588] | 90% | 90% | 90% | 90% | 70% | 90% | 80% | 90% | 60% | 80% | 40% | 80%
9 | CC(C)N(C(=O)n1cnn(S(=O)(=O)c2ccc(Br)cc2)c1=O)c1ccc(F)cc1F [Compound 11-616] | 90% | 90% | 90% | 90% | 60% | 80% | 50% | 80% | 40% | 80% | 80% | 80%
10 | CCN(CC)C(=O)n1cnn(S(=O)(=O)c2ccccc2C)c1=O [Compound 11-622] | 40% | 0% | 90% | 40% | 50% | 50% | 90% | 50% | 80% | 90% | 40% | 40%
11 | CCc1ccc(S(=O)(=O)n2ncn(C(=O)N(CC)CC)c2=O)cc1 [Compound 11-665] | 40% | 40% | 80% | 40% | 60% | 60% | 90% | 60% | 80% | 80% | 0% | 0%
12 | CC(C)N(C(=O)n1cnn(S(=O)(=O)c2ccc(C(C)(C)C)cc2)c1=O)c1ccc(F)cc1F [Compound 11-682] | 90% | 90% | 100% | 90% | 80% | 90% | 90% | 90% | 80% | 90% | 40% | 40%
13 | CCN(CC)C(=O)n1cnn(S(=O)(=O)c2ccccc2C(F)(F)F)c1=O [Compound 11-710] | 40% | 40% | 70% | 40% | 40% | 40% | 80% | 40% | 80% | 100% | 40% | 60%
14 | CC(C)N(C(=O)n1cnn(S(=O)(=O)c2ccccc2C(F)(F)F)c1=O)c1ccc(F)cc1F [Compound 11-711] | 90% | 90% | 90% | 90% | 60% | 70% | 60% | 70% | 90% | 100% | 50% | 50%
